Experimental data reported in patent US20210107865A1, “ALIPHATIC AMINE AND ITS PREPARATION METHOD AND USE” (COVESTRO D[…], priority 2017, published 2021).

Experiment: Solubility of lysine in amine compounds and solvents
Type: physicochemical
Conditions: at 100° C. under normal pressure

Compound: NCCCC[C@H](N)C(=O)O [lysine, L-lysine]
- solubility of lysine in 1,5-pentanediamine (in 1,5-pentanediamine): solubility of lysine in 1,5-pentanediamine is 33 g/100 g,
- solubility of lysine in 1,6-hexanediamine (in 1,6-hexanediamine): is 4.6 g/100 g, measured at 100 °C under normal pressure.
- solubility of lysine in cyclohexanol (in cyclohexanol): Ltd. The solubility of lysine in cyclohexanol is 0.01 g/100 g/100 g
- solubility of lysine in ethylene glycol (in ethylene glycol): The solubility of lysine in ethylene glycol is 20 g/100 g,
- solubility of lysine in isophoronediamine (in isophoronediamine): is 5.2 g/100 g, measured at 100 °C under normal pressure.
